Paper PMC10259803 (PLOS Pathogens, 2023)

Columns and labels:
D39x = test: ex vivo recombination frequency with mouse lung homogenate, D39x; format: cell-based, Streptococcus pneumoniae; conditions: for ex vivo recombination frequency with homogenized lungs of mice treated in vivo: poly (I:C) 50 μL of 1 mg/mL IN daily 4 days, AEBSF 125 μg IN daily 3 days along with poly (I:C), 0 mM AEBSF ex vivo
Protocol: To determine the impact of proteases from the lungs of mice on recombination frequency, a similar experimental setup as the in vitro recombination frequency was performed. […] During culture incubation, the lungs of 10-week-old female Balb/cJ mice (N = 7) were harvested and homogenized in 600 μL PBS. Lung homogenate was incubated with either water or AEBSF for 30 minutes, room temperature. 60 μL of lung homogenate-AEBSF mixture was transferred to a new tube. Addition of CSP1, culture, and gDNA and transformation was performed in the same manner as the in vitro recombination frequency. The final concentration of CSP was 3 μg/mL and gDNA was 2 μg/mL. The final concentration of AEBSF was 0mM, 1 mM, or 2mM. The lung from each mouse was divided into six transformations: D39x with lungs incubated with 0mM, 1 mM, or 2mM AEBSF and D39x comC^- with lungs incubated with 0mM, 1 mM, or 2mM AEBSF. As a control, the same culture of D39x and D39x comC^- were transformed with gDNA and CSP1 incubated with AEBSF in PBS. Recombination frequency of the transformation with CSP1 incubated with 1 mM and with 2 mM AEBSF were compared to that incubated with 0 mM AEBSF using Kruskal-Wallis one-way ANOVA in Graphpad 6.
Lungs were harvested and homogenized in 600 μL PBS. The homogenates from all lungs were subjected to the ex vivo protocol described above and the recombination frequency of D39x and D39x comC^- subjected to lungs incubated with 0mM, 1 mM, or 2mM AEBSF and CSP1 was determined.

[1] = test system: serine proteases in mouse lung homogenates and sera; test: Protease levels (fluorescence of substrate BOC); format: biochemical; conditions: for Protease levels in lungs and sera of treated mice: poly (I:C) vs control mice (lungs and sera), AEBSF prior to poly (I:C) vs poly (I:C) alone (lungs)
Protocol: For ex vivo experiments, the protease levels were measured from the same lung homogenate used in the ex vivo recombination frequency experiment, adapting the protocol from the HAT manufacturer (Bio-techne R&D). After the lungs were incubated with either water or AEBSF, 50 μL of lung homogenate mixture was transferred to a black, 96-well plate. 50 μL of substrate t-Butyloxycarbonyl Phe-Ser-Arg 7-amino-4methyl coumarin (Bachem # I1400) was added directly to the well, incubated for 10 minutes at room temperature, and fluorescence (380 excitation; 460 emission) was detected in a Biotek Cytation 3. Protease levels of lung homogenates incubated with 1 mM and 2 mM AEBSF were compared to that incubated with 0 mM AEBSF using one-way ANOVA and correlation between protease levels and recombination frequency was compared using two-tailed spearman in Graphpad 6.
For in vivo experiments, homogenized lungs were further clarified after plating on TSA plates via centrifugation at 10,000xg, 5min. Sera was separated from whole blood via centrifugation at 10,000xg, 5 min in sera-collection tubes. The clarified homogenates and sera were transferred to a black, 96-well plate and 50 μL of substrate t-Butyloxycarbonyl Phe-Ser-Arg 7-amino-4methyl coumarin was added directly to the well and fluorescence (380 excitation; 460 emission) was detected in a Biotek Cytation 3. Protease levels of all groups were compared pairwise for each tissue using unpaired t test and correlation between protease levels and recombination frequency was compared using two-tailed spearman in Graphpad 6.

S. pneumoniae D39 = test: in vivo recombination frequency, poly (I:C) / AEBSF treated mice; conditions: Balb/cJ mice; poly (I:C) 50 μL of 1 mg/mL IN daily 4 days vs vehicle; AEBSF 125 μg IN prior to poly (I:C) vs poly (I:C) without inhibitor; 20 h after challenge
D39x comC^- = test: in vitro recombination frequency, D39x comC^-; format: cell-based, Streptococcus pneumoniae
Protocol: (§1) During culture incubation, porcine pancreatic trypsin (PPT; Sigma #T4799) was reconstituted in Hank’s balanced salt solution (Gibco) and incubated with either water or 4-(2-Aminoethyl) benzenesulfonyl fluoride hydrochloride (AEBSF; Cayman #14321) in a total volume of 50μL 30mM Tris, pH 8.5 and incubated for 15 minutes, room temperature. CSP1 or CSP2 was added, followed by incubation for 30 minutes, room temperature. When the culture reached OD620~0.08, 1 mL of culture was transferred to the PPT-AEBSF-CSP mixture and 2 μg of D39 Tn-seq library gDNA (D39 strains) or 2 μg of TIGR4 Tn-seq library gDNA (TIGR4 strains) was added. […] Upon addition of the culture, the final concentration of PPT ranged from 0–10 μg/mL, AEBSF was 0.1 mM, CSP was 3 μg/mL, and gDNA was 2 μg/mL. The transformation was incubated for 3 hours at 37°C, 5% CO2, followed by serial dilution and plating on two TSA blood plates and two TSA blood plates supplemented with 200 μg/mL spectinomycin. To observe low-frequency recombination events, 200 μL of the transformation was also spread plated on two TSA blood plates supplemented with 200 μg/mL spectinomycin. For transformations with HAT incubated CSP, HAT (Bio-techne R&D #2695-SE-010) was reconstituted in 25mM Tris, 150mM NaCl, pH 7.5. All incubation times and final concentrations were the same as for PPT; however, the volumes were 1/10th as that for PPT. For both PPT and HAT, the experiment was repeated at least three times.

TIGR4 = test: in vitro recombination frequency, TIGR4; format: cell-based, Streptococcus pneumoniae; conditions: CSP2; PPT or HAT; 0.1 mM AEBSF
Protocol: as §1, with “For both PPT and HAT, the experiment was repeated at least three times.” left out

DLA3 [2] = test: Growth (OD620) of DLA3; conditions: DLA3 with CSP1 incubated with trypsin with and without AEBSF (S1 Fig)
Protocol: A similar protocol as the in vitro recombination frequency was followed. DLA3 was inoculated in C+Y at OD620~0.03. Either PPT or HAT was incubated with water or AEBSF for 15 minutes, room temperature, followed by incubation with CSP1 for thirty minutes in a total volume of 5 μL 30mM Tris, pH 8.5. When the culture reached OD620~0.08, cells were pelleted at 6,000xg, 5 min and resuspended in fresh C+Y. 100 μL of the culture was added to the Trypsin-AEBSF-CSP mixture, followed by transfer to a white-walled, clear-bottom 96-well plate and addition of 5 μL of 10 mg/mL luciferin (Sigma #L6882). Luminescence and OD620 measurements were taken every 30 minutes in a Biotek Cytation 3. Increasing concentrations of protease within each group (0 mM AEBSF or 0.1 mM AEBSF) were compared using two-way ANOVA in Graphpad 6.
Absorbance at OD620 of DLA3 grown in the presence of CSP1 incubated with increasing concentrations of trypsin with and without inhibitor AEBSF. Incubation of CSP1 with PPT (A) without AEBSF or (B) with AEBSF. Incubation of CSP1 with HAT (C) without AEBSF or (D) with AEBSF. Experiment was repeated in triplicate. The mean value of OD620 of each 30-minute timepoint is reported; error bars are SEM.

DLA3 [3] = test: Luminescence assay, DLA3 (PssbB-luc competence reporter); conditions: CSP1; 0.1 mM AEBSF
Protocol: DLA3 was inoculated in C+Y at OD620~0.03. Either PPT or HAT was incubated with water or AEBSF for 15 minutes, room temperature, followed by incubation with CSP1 for thirty minutes in a total volume of 5 μL 30mM Tris, pH 8.5. When the culture reached OD620~0.08, cells were pelleted at 6,000xg, 5 min and resuspended in fresh C+Y. 100 μL of the culture was added to the Trypsin-AEBSF-CSP mixture, followed by transfer to a white-walled, clear-bottom 96-well plate and addition of 5 μL of 10 mg/mL luciferin (Sigma #L6882). Luminescence and OD620 measurements were taken every 30 minutes in a Biotek Cytation 3.

porcine trypsin gold = porcine trypsin gold (Promega #V5280); conditions: room temperature, up to thirty minutes
porcine trypsin = biological target: T1, porcine trypsin (Sus scrofa, UniProt P00761); test: Mass spectrometry of CSP cleavage by porcine trypsin; format: in vitro ADME; conditions: 30 min, room temperature
T1 construct: purchased Promega V5280
Protocol: Fig 1 Serine proteases cleave competence-stimulating peptide of S. pneumoniae. (A) Sequence of competence-stimulating peptide 1 (CSP1) and peptide 2 (CSP2). Red arrows indicate potential cleavage sites by trypsin-like serine proteases. (B) Mass spectrometry analysis of cleaved residues of CSP1 upon incubation with no trypsin (grey) or with porcine trypsin (black) for 30 minutes. (C) Mass spectrometry analysis of cleaved residues of CSP1 upon incubation with no trypsin (grey) or with human airway trypsin (HAT) (black) for 30 minutes. (D) Mass spectrometry analysis of cleaved residues of CSP2 upon incubation with no trypsin (grey) or with porcine trypsin (black) for 30 minutes. (E) Mass spectrometry analysis of cleaved residues of CSP2 upon incubation with no trypsin (grey) or with HAT (black) for 30 minutes. (B-E) The fraction of each peptide detected by mass spectrometry was calculated by dividing the area of the cleaved peptide by the total area of all peptides. In the case of two cleavage sites on the same peptide, the fraction was equally attributed to both cleavage sites. […]
CSPs was incubated with either porcine trypsin gold (Promega #V5280) or human airway trypsin-like protease (HAT; Bio-techne R&D #2695-SE-010) for thirty minutes, room temperature. […] The eluted peptides were ionized by electrospray ionization and detected by an inline mass spectrometer (Thermo Orbitrap Fusion). […]

T1 sequence (P00761 9-231): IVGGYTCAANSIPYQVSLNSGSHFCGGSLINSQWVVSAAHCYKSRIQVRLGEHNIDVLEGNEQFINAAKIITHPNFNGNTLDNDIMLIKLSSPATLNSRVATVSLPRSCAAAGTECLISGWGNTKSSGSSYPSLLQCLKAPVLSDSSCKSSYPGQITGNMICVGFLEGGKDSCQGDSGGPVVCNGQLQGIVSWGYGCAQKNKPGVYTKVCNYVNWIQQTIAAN

Compound: poly (I:C)
- ex vivo recombination frequency with homogenized lungs of mice treated in vivo (D39x): reduced
- Protease levels in lungs and sera of treated mice ([1]; BOC substrate fluorescence): higher
- protease levels in inflamed lungs, equated to recombinant HAT ([1]; recombinant HAT standard, 35000 RFU = 0.05 μg/mL, non-inflamed lungs 0.079 (±0.010)): 0.168 (±0.012) μg/mL
- in vivo recombination frequency of D39 in lungs and blood (S. pneumoniae D39): significant reduction

Compound: Cl.NCCc1ccc(S(=O)(=O)F)cc1 [AEBSF, 4-(2-Aminoethyl) benzenesulfonyl fluoride hydrochloride]
- recombination frequency with CSP1 incubated with PPT or HAT pre-incubated with AEBSF (D39x comC^-; 0.1 mM AEBSF, protease pre-incubated 15 min): at a similar level as that of the no trypsin control
- protease-caused reduction of recombination frequency when proteases were incubated with AEBSF (TIGR4): abrogated
- recombination frequency with CSP1 incubated with AEBSF alone (D39x; CSP1 in PBS with increasing AEBSF, no lung homogenate, D39x and D39x comC^- (S3 Fig)): did not increase
- recombination frequency with CSP1 incubated with lung homogenates treated with AEBSF (D39x; mouse lung homogenate incubated 30 min with 1 or 2 mM AEBSF vs 0 mM): increased
- ex vivo recombination frequency with homogenized lungs of mice treated in vivo (D39x): restored
- levels of serine proteases in the lung homogenates ([1]; lung homogenate incubated with 1 or 2 mM AEBSF, BOC substrate fluorescence): decreased
- Protease levels in lungs and sera of treated mice ([1]; BOC substrate fluorescence): reduced
- Growth of S. pneumoniae (OD620) (DLA3 [2]): not reduced
- PPT-caused reduction of DLA3 luminescence when PPT was pre-incubated with AEBSF (DLA3 [3]): abrogated
- in vivo recombination frequency of D39 in lungs and blood (S. pneumoniae D39): higher frequency

Compound: EMRISRIILDFLFLRKK
- cleaved bond (porcine trypsin gold): R6-I7 and E-M and D-F

Compound: CC[C@H](C)[C@H](NC(=O)[C@H](Cc1ccccc1)NC(=O)[C@H](CC(=O)O)NC(=O)[C@H](CCCNC(=N)N)NC(=O)[C@H](Cc1ccccc1)NC(=O)[C@H](Cc1ccccc1)NC(=O)[C@H](CCCCN)NC(=O)[C@H](CO)NC(=O)[C@H](CC(C)C)NC(=O)[C@H](CCCNC(=N)N)NC(=O)[C@H](CCSC)NC(=O)[C@@H](N)CCC(=O)O)C(=O)N[C@@H](CC(C)C)C(=O)N[C@@H](CCC(N)=O)C(=O)N[C@@H](CCCNC(=N)N)C(=O)N[C@@H](CCCCN)C(=O)N[C@@H](CCCCN)C(=O)O [CSP1]
- preferential cleavage site, porcine trypsin (porcine trypsin): R15 followed by K6 and R9
- HAT concentration to reduce the recombination frequency to below 5% of 0 trypsin (D39x comC^-; CSP incubated with HAT 30 min, room temperature): 1 µg/mL
- PPT concentration to reduce the recombination frequency to below 5% of 0 trypsin (D39x comC^-; CSP incubated with PPT 30 min, room temperature): 0.05 µg/mL
- recombination frequency after incubation of CSP with mouse lung homogenate (D39x; mouse lung homogenate, ex vivo): reduced
